Measurements: patent US9663517B2, “Compositions and uses thereof” (Plexxikon Inc., priority 2009, dated 2017)

Test: pKa of weakly basic centre
Format: physicochemical
Settings: N-7 of the azaindole portion
From the text: Propane-1-sulfonic acid {3-[5-(4-chloro-phenyl)-1H-pyrrolo[2,3-b]pyridine-3-carbonyl]-2,4-difluoro-phenyl}-amide is characterized as having functionalities providing both weakly basic and weakly acidic centers which can form organic salt complexes, resulting in improved solubility. For example, the N-7 of the azaindole portion is weakly basic (pKa approximately 4-5) and can form an acid addition salt complex with an organic acid such as benzenesulfonic acid, methylsulfonic acid or toluenesulfonic acid, preferably methanesulfonic acid or toluenesulfonic acid. Such mesylate or tosylate salts provide advantage over the free base, such as an improved solubility, improved intrinsic dissolution rate, and lower melting point than the free base. The improved intrinsic dissolution rate provides an advantage in formulation of the salt, for example, formulation in an amorphous form by methods described in the above examples. The improved solubility provides more efficient and cost effective formulation, for example spray drying or microprecipitated bulk processing can be performed using far less solvent volumes due to the intrinsic solubility. Such advantages may also be provided by formation of the mesylate or tosylate salt in situ during the processing, for example the process of spray drying, solvent controlled precipitation, or pH controlled precipitation. […]

## CCCS(=O)(=O)Nc1ccc(F)c(C(=O)c2c[nH]c3ncc(-c4ccc(Cl)cc4)cc23)c1F [Compound I, propane-1-sulfonic acid {3-[5-(4-chloro-phenyl)-1H-pyrrolo[2,3-b]pyridine-3-carbonyl]-2,4-difluoro-phenyl}-amide]
  pKa: 4 to 5
